Reference: US7820698B2, “Phosphodiesterase-4 inhibitors belonging to the tertiary amine class” (Chiesi Farmaceutici S.p.A., priority 2008, dated 2010)

Tests used:
PDE4 enzyme = experiment: In vitro determination of PDE4 inhibitory activity in the cell free assay; type: biochemical, human; conditions: U937 cell supernatant, 1.6 μM cAMP, 30° C. for 30 minutes, cAMP disappearance
Description: The U937 human monocytic cell line was used as source of PDE4 enzyme. Cells were cultured, harvested and supernatant fraction prepared essentially as described in T. J. Torphy, et al., J. Pharmacol. Exp. Ther., 1992; 263:1195-1205.
PDE4 activity was determined in cells supernatants by assaying cAMP disappearance from the incubation mixtures. 50 μl of cell supernatant were incubated at 30° C. for 30 minutes in a final volume of 200 μl in the presence of 1.6 μM cAMP with or without the test compound (50 μl).
The concentration of the test compounds ranged between 10^−12 M and 10^−6 M.
Reactions were stopped by heat inactivation (2.5 minutes at 100° C.), and residual cAMP was measured using an electrochemiluminescence (ECL)-based immunoassay.
The results are expressed as mean±95% confidence limits of the molar concentration of the test compound producing 50% inhibition of cAMP disappearance (IC50).
Percentage of inhibition of PDE4 activity was calculated, assuming cAMP disappearance in the absence of inhibitors as 100% and cAMP disappearance in heat inactivated samples as 0%.

[1] = tested on: LPS-induced TNF-α release in peripheral blood mononuclear cells (PBMCs); experiment: In vitro determination of PDE4 inhibitory activity in the peripheral blood mononuclear cells (PBMCs) assay; type: cell-based; conditions: PBMC; human PBMCs, LPS (3 ng/ml), 18 hours, TNF-α by ELISA
Description: The assay, which is based on the known inhibitory activity exerted by PDE4 inhibitors on the lipopolysaccharides (LPS)-induced tumour necrosis factor-alpha (TNF-α release in peripheral blood mononuclear cells (PBMCs), was performed according to the method described by A. Hatzelmann, et al., J. Pharmacol. Exp. Ther., 2001; 297:267-279 and by R. Draheim, et al., J. Pharmacol. Exp. Ther., 2004; 308:555-563.
Cryopreserved human PBMCs, (100 μl/well) were incubated in 96-well plates (10^5 cells/well), for 30 minutes, in the presence or absence (50 microl) of the test compounds whose concentrations ranged from 10^−12 M to 10^−6 M. Subsequently, LPS (3 ng/ml) was added.
After 18 hours incubation at 37° C. in a humidified incubator under an atmosphere of 95% air and 5% CO2, culture medium was collected and TNF-α measured by ELISA. The results are expressed as mean±95% confidence limits of the molar concentration of the test compound producing 50% inhibition of LPS-induced TNF-α release (IC50).
The effects of the tested compounds were calculated as percent inhibition of TNF-α release, assuming LPS-induced TNF-α production in the absence of inhibitor compound as 100% and basal TNF-α production of PBMCs in the absence of LPS as 0%.

IC50 (PDE4 enzyme) [nM]	Structure (SMILES)	IC50 [1] [nM]
81	COc1ccc(N(Cc2ccc(F)cc2)Cc2c(Cl)cncc2Cl)cc1OC [Compound C1, (3,5-Dichloro-pyridin-4-ylmethyl)-(3,4-dimethoxy-phenyl)-(4-fluoro-benzyl)-amine]	661
140	COc1cccc(CN(Cc2c(Cl)cncc2Cl)c2ccc(OC)c(OC)c2)c1 [Compound C3, (3,5-Dichloro-pyridin-4-ylmethyl)-(3,4-dimethoxy-phenyl)-(3-methoxy-benzyl)-amine]	184
60	COc1ccc(N(Cc2ccc(S(C)(=O)=O)cc2)Cc2c(Cl)cncc2Cl)cc1OC [Compound C4, (3,5-Dichloro-pyridin-4-ylmethyl)-(3,4-dimethoxy-phenyl)-(4-methanesulfonyl-benzyl)-amine]	198
	COc1ccc(N(Cc2ccco2)Cc2c(Cl)cncc2Cl)cc1OC [Compound C9, (3,5-Dichloro-pyridin-4-ylmethyl)-(3,4-dimethoxy-phenyl)-furan-2-ylmethyl-amine]	47.8
38	COc1ccc(N(Cc2ccc(S(N)(=O)=O)cc2)Cc2c(Cl)cncc2Cl)cc1OC [Compound C10, 4-{[(3,5-Dichloro-pyridin-4-ylmethyl)-(3,4-dimethoxy-phenyl)-amino]-methyl}-benzenesulfonamide]	38
97.1	COc1ccc(CN(Cc2c(Cl)cncc2Cl)c2ccc(OC)c(OC)c2)cc1 [Compound C13, (3,5-Dichloro-pyridin-4-ylmethyl)-(3,4-dimethoxy-phenyl)-(4-methoxy-benzyl)-amine]	9.85
27	CCOc1cc(N(Cc2ccc(OC)cc2)Cc2c(Cl)cncc2Cl)ccc1OC [Compound C14, (3,5-Dichloro-pyridin-4-ylmethyl)-(3-ethoxy-4-methoxy-phenyl)-(4-methoxy-benzyl)-amine]	117
